Data on five compounds can be found in patent publication US5807899A, “Triphenylethylenes, process for their production, pharmaceutical preparations that contain these triphenylethylenes as well as their use for the production of pharmaceutical agents” (Schering Aktiengesellschaft, priority 1995, dated 1998).

One test has as its system HeLa cell line. The experiment in a line: Transactivation assay for antiestrogenic action, HeLa cell line. Type of test: cell-based. Conditions: Homo sapiens, antiestrogenic action in transactivation assay. The protocol:
The compounds of general formula I according to this application are distinguished by a new type of side chain on the phenoxy radical in comparison to the already known tamoxifen derivatives. […] As mentioned an estrogenic partial action can also be present in the-compounds according to the invention. The antiestrogenic and optionally estrogenic action of the compounds according to the invention was determined in a transactivation assay [Demirpence, E.; Duchesne, M.-J.; Badia, E.; Gagne, D.; and Pons, M.: MVLN Cells: A Bioluminescent MCF-7-Derived Cell Line to Study the Modulation of Estrogenic Activity; J. Steroid Molec. Biol.. Vol. 46, No. 3, 355-364 (1993) as well as Savouret, J. F.; Bailly, A.; Misrahi, M.; Rauch, C.; Redeuilh, G.; Chauchereau, A. and Milgrom, E.: Characterization of the Hormone Responsive Element Involved in the Regulation of the Progesterone Receptor Gene, The EMBO Journal Vol. 10, No. 7, 1875-1883 (1991)].
The IC50 values for the new compounds lie in the nanomolar range. In the HeLa cell line, the following IC50 values are produced for the compounds of Examples 5, 12, 13 and 16 (test implementation according to the bibliographic references indicated above): […]

Test [1] concerns estrogens (antiestrogenic / estrogenic activity). The following applies: reference compound; cited from earlier work.

As usually defined, the IC50 is the concentration that gives 50% inhibition. Low readings indicate greater potency in that assay, high ones weaker potency in that assay.

Turning to `CCC(=C(c1ccc(O)cc1)c1ccc(OCCCCC[S+]([O-])CCCC(F)(F)C(F)(F)F)cc1)c1ccccc1` (centres unmarked) [Example 5, 4-(1-{4-[5-(4,4,5,5,5-Pentafluoropentanesulfinyl)-pentyloxy]-phenyl}-2-phenyl-but-1-enyl)-phenol], the half-inhibitory concentration (IC50) in the test on HeLa cell line worked out at 1 nM.

As to `CCC(=C(c1ccc(O)cc1)c1ccc(OCCCCCSCc2ccccn2)cc1)c1ccccc1` [Example 11, 4-((E,Z)-2-Phenyl-1-{4-[5-(pyridin-2-ylmethylsulfidyl)-pentyloxy]-phenyl}-but-1-enyl)-phenol], the IC50 in the test with HeLa cell line worked out at 5 nM. In the test with HeLa cell line, `CCC(=C(c1ccc(O)cc1)c1ccc(OCCCCC[S+]([O-])Cc2ccccn2)cc1)c1ccccc1` (centres unmarked) [Example 12, 4-((E,Z)-2-Phenyl-1-{4-[5-(pyridin-2-ylmethanesulfinyl)-pentyloxy]-phenyl}-but-1-enyl)-phenol] returned a half-inhibitory concentration (IC50) of 2.8 nM. `CCC(=C(c1ccc(I)cc1)c1ccc(OCCCCC[S+]([O-])CCCC(F)(F)C(F)(F)F)cc1)c1ccccc1` (centres unmarked) [Example 15, (5-{4-[(E,Z)-1-(4-Iodophenyl)-2-phenyl-but-1-enyl]-phenoxy}-pentyl)-(4,4,5,5,5-pentafluoropentyl)-sulfoxide] displayed an IC50 in the test on HeLa cell line of 17 nM.

Take `CC/C(=C(\c1ccccc1)c1ccc(OCCN(C)C)cc1)c1ccccc1` [tamoxifen]: the “antiestrogenic / estrogenic profile of tamoxifen” value in test [1] was “antiestrogens with estrogenic partial action”.
